Test results from ChEMBL document CHEMBL1128060, “Deoxypseudophrynaminol: a novel antibacterial alkaloid” (1995).
Values after ≈ are worked out from the molar mass of the structure shown. Active and inactive are the calls of the source. No cut-off for these calls is given here.

What was measured:
[1] = test system: Enterococcus faecalis; assay: Minimum inhibitory concentration against growth of patient isolated vancomycin-resistant Enterococcus faecalis ATCC 51299 (VRE2); no inhibition; assay type: functional, organism-based
[2] = test system: Staphylococcus aureus; assay: Minimum inhibitory concentration against growth of patient isolated methicillin-resistant Staphylococcus aureus (MRSA2); no inhibition; assay type: functional, organism-based
[3] = test system: Escherichia coli; assay: Minimum inhibitory concentration against growth of […] Escherichia coli […]; assay type: functional
[4] = test system: Enterococcus faecalis; assay: Minimum inhibitory concentration against growth of patient isolated vancomycin-resistant Enterococcus faecalis ATCC 51299 (VRE2); assay type: functional
[5] = test system: Enterococcus faecium; assay: Minimum inhibitory concentration against growth of patient isolated vancomycin-resistant Enterococcus faecium (VRE1); assay type: functional
[6] = test system: Staphylococcus aureus; assay: Minimum inhibitory concentration against growth of patient isolated methicillin-resistant Staphylococcus aureus (MRSA1); assay type: functional
[7] = test system: Staphylococcus aureus; assay: Minimum inhibitory concentration against growth of patient isolated methicillin-resistant Staphylococcus aureus (MRSA2); assay type: functional

## CC(C)=CCN1c2ccccc2C2(CC=C(C)C)CCN(C=O)C12 (configuration not stated)
[1]
  MIC: inactive
[2]
  MIC: inactive

## CC(C)=CCC12CCN(C)C1Nc1ccccc12 (configuration not stated)
[3]
  MIC: 160 mg/L (≈ 660 µM)
[4]
  MIC: 40 mg/L (≈ 165 µM)
[5]
  MIC: 20 mg/L (≈ 82.5 µM)
[6]
  MIC: 40 mg/L (≈ 165 µM)
[7]
  MIC: 40 mg/L (≈ 165 µM)
